Measured values reported in article PMC5989697 (ACS Catalysis, 2018).

Target: T1, eugenol oxidase (EUGO) (Rhodococcus jostii, UniProt Q0SBK1)
T1 sequence (Q0SBK1 1-526): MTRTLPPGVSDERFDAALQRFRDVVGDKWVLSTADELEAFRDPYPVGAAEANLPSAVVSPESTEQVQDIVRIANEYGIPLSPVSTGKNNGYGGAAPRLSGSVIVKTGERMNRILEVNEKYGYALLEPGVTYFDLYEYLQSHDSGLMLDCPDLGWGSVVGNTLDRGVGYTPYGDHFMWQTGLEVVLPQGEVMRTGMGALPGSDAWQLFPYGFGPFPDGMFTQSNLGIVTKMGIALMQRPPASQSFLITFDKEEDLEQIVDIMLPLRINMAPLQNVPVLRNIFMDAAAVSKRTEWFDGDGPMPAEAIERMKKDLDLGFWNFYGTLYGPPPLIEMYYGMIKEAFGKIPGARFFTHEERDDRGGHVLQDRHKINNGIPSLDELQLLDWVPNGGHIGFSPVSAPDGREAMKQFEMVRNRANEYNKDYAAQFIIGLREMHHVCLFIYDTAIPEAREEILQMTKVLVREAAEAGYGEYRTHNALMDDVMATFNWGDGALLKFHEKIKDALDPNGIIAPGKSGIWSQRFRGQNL
Assay: steady-state kinetics
Type: biochemical

Km: 0.77 µM
Compound: C=CCc1cc(OC)c(O)c(OC)c1 [compound 1, 2,6-dimethoxy-4-allylphenol]
